Assay results published in patent US7214690B2, “Tricyclic quinolinone and tricyclic quinoline androgen receptor modulator compounds and methods” (Ligand Pharmaceuticals Incorporated, priority 2001, dated 2007).

Experiments:
Format in all cases: cell-based
PR = molecular target: T1, PR (Homo sapiens, UniProt P06401); assay: co-transfection assay, PR
T1 construct: expressed in transfected cells; host or cells: background cell substantially devoid of endogenous IRs (CV-1 described for the co-transfection assay)
T1 sequence (P06401 1-933): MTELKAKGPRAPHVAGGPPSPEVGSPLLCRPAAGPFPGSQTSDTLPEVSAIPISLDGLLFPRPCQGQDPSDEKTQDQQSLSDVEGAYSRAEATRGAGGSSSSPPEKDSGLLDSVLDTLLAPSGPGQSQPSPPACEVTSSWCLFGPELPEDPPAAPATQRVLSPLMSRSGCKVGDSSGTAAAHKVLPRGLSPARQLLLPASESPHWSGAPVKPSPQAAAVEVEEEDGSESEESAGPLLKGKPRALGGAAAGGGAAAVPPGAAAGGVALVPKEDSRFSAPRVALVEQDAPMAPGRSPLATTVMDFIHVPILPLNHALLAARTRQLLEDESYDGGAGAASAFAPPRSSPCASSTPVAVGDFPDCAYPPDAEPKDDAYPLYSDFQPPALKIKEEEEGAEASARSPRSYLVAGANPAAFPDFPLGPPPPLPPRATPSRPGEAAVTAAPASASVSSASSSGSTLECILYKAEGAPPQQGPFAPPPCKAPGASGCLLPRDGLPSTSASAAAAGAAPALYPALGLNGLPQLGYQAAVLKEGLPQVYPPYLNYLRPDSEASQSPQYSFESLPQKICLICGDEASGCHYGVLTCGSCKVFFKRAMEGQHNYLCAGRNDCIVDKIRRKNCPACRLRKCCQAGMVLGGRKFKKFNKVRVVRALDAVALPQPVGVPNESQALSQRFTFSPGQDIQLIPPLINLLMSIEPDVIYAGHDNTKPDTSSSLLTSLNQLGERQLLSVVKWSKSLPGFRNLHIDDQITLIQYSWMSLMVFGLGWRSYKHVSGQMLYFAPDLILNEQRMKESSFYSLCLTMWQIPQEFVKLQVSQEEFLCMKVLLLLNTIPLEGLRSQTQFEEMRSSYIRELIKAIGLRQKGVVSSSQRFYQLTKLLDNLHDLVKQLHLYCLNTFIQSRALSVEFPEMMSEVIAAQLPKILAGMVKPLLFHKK
Protocol: (§1) CV-1 cells (African green monkey kidney fibroblasts) were cultured in the presence of Dulbecco's Modified Eagle Medium (DMEM) supplemented with 10% charcoal resin-stripped fetal bovine serum (CH-FBS) then transferred to 96-well microtiter plates one day prior to transfection.
(§2) Three to four replicates were used for each sample.
(§3) After 40 hours, the cells were washed with PBS, lysed with a Triton X-100-based buffer and assayed for LUC and β-Gal activities using a luminometer or spectrophotometer, respectively. For each replicate, the normalized response (NR) was calculated as: LUC response/β-Gal rate • where β-Gal rate=β-Gal/β-Gal incubation time.

ER = molecular target: T2, ER (Homo sapiens, UniProt P03372); assay: co-transfection assay, ER
T2 construct: expressed in transfected cells; host or cells: background cell substantially devoid of endogenous IRs (CV-1 described for the co-transfection assay)
T2 sequence (P03372 1-595): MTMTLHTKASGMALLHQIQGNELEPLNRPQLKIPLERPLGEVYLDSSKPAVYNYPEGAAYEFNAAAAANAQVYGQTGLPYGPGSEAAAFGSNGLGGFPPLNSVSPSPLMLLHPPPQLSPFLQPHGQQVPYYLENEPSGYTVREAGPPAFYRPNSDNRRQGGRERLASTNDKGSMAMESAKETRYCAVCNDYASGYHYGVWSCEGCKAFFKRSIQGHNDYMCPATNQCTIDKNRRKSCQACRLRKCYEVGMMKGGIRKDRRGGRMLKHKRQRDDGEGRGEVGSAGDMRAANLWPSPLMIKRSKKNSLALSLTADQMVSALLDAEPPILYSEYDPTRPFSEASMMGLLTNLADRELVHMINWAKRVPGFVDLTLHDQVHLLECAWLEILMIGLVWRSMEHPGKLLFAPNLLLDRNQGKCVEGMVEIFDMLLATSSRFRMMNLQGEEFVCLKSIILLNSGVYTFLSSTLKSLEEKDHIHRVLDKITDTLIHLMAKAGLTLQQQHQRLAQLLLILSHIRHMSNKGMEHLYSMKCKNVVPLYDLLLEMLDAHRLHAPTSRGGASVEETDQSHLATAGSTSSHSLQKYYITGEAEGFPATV
Protocol: as §1, §2, §3

GR = molecular target: T3, GR (Homo sapiens, UniProt P04150); assay: co-transfection assay, GR
T3 construct: expressed in transfected cells; host or cells: background cell substantially devoid of endogenous IRs (CV-1 described for the co-transfection assay)
T3 sequence (P04150 1-777): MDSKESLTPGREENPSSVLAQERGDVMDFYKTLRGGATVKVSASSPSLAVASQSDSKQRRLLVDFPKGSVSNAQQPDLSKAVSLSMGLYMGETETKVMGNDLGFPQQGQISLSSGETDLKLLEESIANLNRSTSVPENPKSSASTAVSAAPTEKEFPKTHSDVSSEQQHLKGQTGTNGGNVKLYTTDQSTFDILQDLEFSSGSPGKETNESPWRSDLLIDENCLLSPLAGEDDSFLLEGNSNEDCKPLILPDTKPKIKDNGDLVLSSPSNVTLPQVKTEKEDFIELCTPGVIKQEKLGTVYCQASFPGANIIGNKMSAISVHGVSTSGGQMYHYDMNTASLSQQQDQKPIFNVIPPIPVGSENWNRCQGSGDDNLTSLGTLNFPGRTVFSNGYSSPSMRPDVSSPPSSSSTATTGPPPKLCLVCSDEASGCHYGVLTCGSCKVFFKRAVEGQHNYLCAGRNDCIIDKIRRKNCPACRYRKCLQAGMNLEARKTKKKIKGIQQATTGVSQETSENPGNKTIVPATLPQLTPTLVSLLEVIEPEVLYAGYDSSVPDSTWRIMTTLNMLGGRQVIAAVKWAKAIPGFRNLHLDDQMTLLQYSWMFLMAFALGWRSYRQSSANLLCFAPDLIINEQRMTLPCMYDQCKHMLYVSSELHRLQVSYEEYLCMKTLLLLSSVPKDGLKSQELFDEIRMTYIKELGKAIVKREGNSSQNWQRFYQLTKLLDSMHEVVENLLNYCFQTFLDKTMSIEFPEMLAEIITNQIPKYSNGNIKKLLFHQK
Protocol: as §1, §2, §3

MR = molecular target: T4, MR (Homo sapiens, UniProt P08235); assay: co-transfection assay, MR
T4 construct: expressed in transfected cells; host or cells: background cell substantially devoid of endogenous IRs (CV-1 described for the co-transfection assay)
T4 sequence (P08235 1-984): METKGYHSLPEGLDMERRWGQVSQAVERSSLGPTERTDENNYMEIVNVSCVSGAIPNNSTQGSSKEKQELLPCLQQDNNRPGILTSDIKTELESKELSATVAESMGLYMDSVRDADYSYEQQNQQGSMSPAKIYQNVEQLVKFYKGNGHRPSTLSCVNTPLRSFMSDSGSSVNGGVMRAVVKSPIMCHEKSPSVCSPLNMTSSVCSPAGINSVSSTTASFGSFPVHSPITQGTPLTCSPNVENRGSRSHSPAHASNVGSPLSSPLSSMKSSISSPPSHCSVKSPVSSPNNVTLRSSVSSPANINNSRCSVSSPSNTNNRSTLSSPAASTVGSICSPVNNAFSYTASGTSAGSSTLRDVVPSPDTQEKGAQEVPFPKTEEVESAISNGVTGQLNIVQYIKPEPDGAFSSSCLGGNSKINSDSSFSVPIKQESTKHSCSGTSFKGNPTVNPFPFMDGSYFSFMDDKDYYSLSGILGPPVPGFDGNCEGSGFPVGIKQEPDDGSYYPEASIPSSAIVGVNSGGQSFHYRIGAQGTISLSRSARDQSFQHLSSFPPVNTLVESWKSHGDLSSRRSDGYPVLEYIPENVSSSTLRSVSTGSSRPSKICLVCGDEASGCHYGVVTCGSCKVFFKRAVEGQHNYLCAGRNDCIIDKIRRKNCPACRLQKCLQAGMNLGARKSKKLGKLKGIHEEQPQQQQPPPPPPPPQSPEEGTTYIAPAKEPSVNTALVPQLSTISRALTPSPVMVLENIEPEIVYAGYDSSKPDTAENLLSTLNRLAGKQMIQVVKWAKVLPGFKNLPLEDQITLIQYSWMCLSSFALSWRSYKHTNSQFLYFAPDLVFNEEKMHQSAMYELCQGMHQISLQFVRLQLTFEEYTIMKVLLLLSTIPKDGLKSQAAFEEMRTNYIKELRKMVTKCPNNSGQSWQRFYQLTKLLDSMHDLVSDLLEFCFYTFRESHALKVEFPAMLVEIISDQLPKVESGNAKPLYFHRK
Protocol: as §1, §2, §3

CCN1c2ccc3[nH]c(=O)cc(C(F)(F)F)c3c2OC[C@H]1C [Compound 103, (3R)-4-Ethyl-2,3,4,7-tetrahydro-3-methyl-10-(trifluoromethyl)-8H-[1,4]oxazino[2,3-f]quinolin-8-one]
> 10 µM: EC50 (PR) | EC50 (ER) | IC50 (ER) | IC50 (GR) | IC50 (MR)

C[C@@H]1COc2c(ccc3[nH]c(=O)cc(C(F)(F)F)c23)N1 [Compound 101, (3R)-2,3,4,7-Tetrahydro-3-methyl-10-(trifluoromethyl)-8H-[1,4]oxazino[2,3-f]quinolin-8-one]
> 10 µM: EC50 (PR) | EC50 (ER) | IC50 (ER) | IC50 (GR) | IC50 (MR)
